Laboratory results: ChEMBL document CHEMBL2073861, “Molecular identification of a novel carnitine transporter specific to human testis. Insights into the mechanism of carnitine recognition” (J Biol Chem, 2002)

Tests used:
[1] = target: Solute carrier family 22 member 16 (Homo sapiens) (UniProt Q86VW1); assay: TP_TRANSPORTER: inhibition of carnitine uptake by Carnitine-related compound-4A at 20uM in Xenopus laevis oocytes; set-up: scale not given: the % may be the effect or the level left; details: Oocyte
[2] = target: T1, Organic cation/carnitine transporter 2 (Homo sapiens, UniProt O76082); assay: TP_TRANSPORTER: inhibition of carnitine uptake by Carnitine-related compound-4A at 20uM in Xenopus laevis oocytes; assay type: functional, cell-based; set-up: scale not given: the % may be the effect or the level left; details: oocyte
T1 sequence (O76082 whole entry): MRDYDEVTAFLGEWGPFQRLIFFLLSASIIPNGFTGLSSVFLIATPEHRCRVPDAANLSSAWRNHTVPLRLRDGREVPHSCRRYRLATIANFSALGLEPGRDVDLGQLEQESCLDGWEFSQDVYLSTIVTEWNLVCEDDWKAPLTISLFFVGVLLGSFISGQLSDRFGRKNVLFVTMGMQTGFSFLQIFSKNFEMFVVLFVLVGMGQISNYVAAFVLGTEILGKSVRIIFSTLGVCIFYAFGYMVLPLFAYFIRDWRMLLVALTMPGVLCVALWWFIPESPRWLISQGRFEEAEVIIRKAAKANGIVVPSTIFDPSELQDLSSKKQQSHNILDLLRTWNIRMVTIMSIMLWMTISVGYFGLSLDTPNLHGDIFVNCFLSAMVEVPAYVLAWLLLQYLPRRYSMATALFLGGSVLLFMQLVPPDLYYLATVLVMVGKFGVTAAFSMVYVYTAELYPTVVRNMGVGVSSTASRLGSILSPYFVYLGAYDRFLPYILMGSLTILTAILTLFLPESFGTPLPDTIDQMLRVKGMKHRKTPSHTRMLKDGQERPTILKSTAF

[3] = target: Solute carrier family 22 member 16 (Homo sapiens) (UniProt Q86VW1); assay: TP_TRANSPORTER: inhibition of carnitine uptake by Carnitine-related compound-7A at 20uM in Xenopus laevis oocytes; set-up: scale not given: the % may be the effect or the level left; details: Oocyte
[4] = target: T1, Organic cation/carnitine transporter 2; assay: TP_TRANSPORTER: inhibition of carnitine transport by Carnitine-related compound-7A at 20uM in Xenopus laevis oocytes; assay type: functional, cell-based, Oocyte; set-up: scale not given: the % may be the effect or the level left; details: probe carnitine, read-out: Activity
[5] = target: T2, Solute carrier family 22 member 16 (Homo sapiens, UniProt Q86VW1); assay: TP_TRANSPORTER: inhibition of carnitine transport by Octanoyl-carnitine at 5uM in Xenopus laevis oocytes; assay type: functional, cell-based; set-up: scale not given: the % may be the effect or the level left; details: oocyte
T2 sequence (Q86VW1 whole entry): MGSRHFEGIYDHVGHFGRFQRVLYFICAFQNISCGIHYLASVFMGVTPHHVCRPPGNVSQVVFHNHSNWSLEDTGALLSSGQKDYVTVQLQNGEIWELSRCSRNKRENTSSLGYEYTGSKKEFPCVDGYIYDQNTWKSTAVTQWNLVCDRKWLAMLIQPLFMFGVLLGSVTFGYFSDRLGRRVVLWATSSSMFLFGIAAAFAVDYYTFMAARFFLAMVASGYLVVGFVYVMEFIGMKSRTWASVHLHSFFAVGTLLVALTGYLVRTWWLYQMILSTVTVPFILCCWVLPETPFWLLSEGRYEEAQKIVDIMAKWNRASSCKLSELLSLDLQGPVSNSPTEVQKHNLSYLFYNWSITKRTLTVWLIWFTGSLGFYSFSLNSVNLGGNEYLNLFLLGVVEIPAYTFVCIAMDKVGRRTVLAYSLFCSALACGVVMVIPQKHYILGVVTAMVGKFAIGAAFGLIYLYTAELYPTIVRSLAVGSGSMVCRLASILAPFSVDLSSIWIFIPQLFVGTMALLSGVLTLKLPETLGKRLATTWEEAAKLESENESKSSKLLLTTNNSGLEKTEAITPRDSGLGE

[6] = target: Solute carrier family 22 member 16 (Homo sapiens) (UniProt Q86VW1); assay: TP_TRANSPORTER: inhibition of carnitine uptake by Carnitine-related compound-18 at 20uM in Xenopus laevis oocytes; set-up: scale not given: the % may be the effect or the level left; details: Oocyte
[7] = target: Solute carrier family 22 member 16 (Homo sapiens) (UniProt Q86VW1); assay: TP_TRANSPORTER: inhibition of carnitine uptake by Carnitine-related compound-5A at 20uM in Xenopus laevis oocytes; set-up: scale not given: the % may be the effect or the level left; details: Oocyte
[8] = target: T1, Organic cation/carnitine transporter 2; assay: TP_TRANSPORTER: inhibition of carnitine uptake by Carnitine-related compound-5A at 20uM in Xenopus laevis oocytes; assay type: functional, cell-based, Oocyte; set-up: scale not given: the % may be the effect or the level left; details: probe carnitine, read-out: Activity
[9] = target: T2, Solute carrier family 22 member 16; assay: TP_TRANSPORTER: inhibition of carnitine in Xenopus laevis oocytes; assay type: functional, cell-based, Oocyte
[10] = target: T2, Solute carrier family 22 member 16; assay: TP_TRANSPORTER: inhibition of carnitine transport by Acetyl-L-carnitine at 5uM in Xenopus laevis oocytes; assay type: functional, cell-based, Oocyte; set-up: scale not given: the % may be the effect or the level left; details: probe carnitine, read-out: Activity
[11] = target: T1, Organic cation/carnitine transporter 2; assay: TP_TRANSPORTER: inhibition of carnitine transport by Carnitine-related compound-8A at 20uM in Xenopus laevis oocytes; assay type: functional, cell-based, Oocyte; set-up: scale not given: the % may be the effect or the level left; details: probe carnitine, read-out: Activity
[12] = target: Solute carrier family 22 member 16 (Homo sapiens) (UniProt Q86VW1); assay: TP_TRANSPORTER: inhibition of carnitine uptake by Carnitine-related compound-8A at 20uM in Xenopus laevis oocytes; set-up: scale not given: the % may be the effect or the level left; details: Oocyte
[13] = target: Solute carrier family 22 member 16 (Homo sapiens) (UniProt Q86VW1); assay: TP_TRANSPORTER: inhibition of carnitine uptake by Carnitine-related compound-11A at 20uM in Xenopus laevis oocytes; set-up: scale not given: the % may be the effect or the level left; details: Oocyte
[14] = target: Solute carrier family 22 member 16 (Homo sapiens) (UniProt Q86VW1); assay: TP_TRANSPORTER: inhibition of carnitine uptake by Carnitine-related compound-6A at 20uM in Xenopus laevis oocytes; set-up: scale not given: the % may be the effect or the level left; details: Oocyte
[15] = target: T1, Organic cation/carnitine transporter 2; assay: TP_TRANSPORTER: inhibition of carnitine uptake by Carnitine-related compound-2A at 20uM in Xenopus laevis oocytes; assay type: functional, cell-based, Oocyte; set-up: scale not given: the % may be the effect or the level left; details: probe carnitine, read-out: Activity
[16] = target: Solute carrier family 22 member 16 (Homo sapiens) (UniProt Q86VW1); assay: TP_TRANSPORTER: inhibition of carnitine uptake by Carnitine-related compound-2A at 20uM in Xenopus laevis oocytes; set-up: scale not given: the % may be the effect or the level left; details: Oocyte
[17] = target: T1, Organic cation/carnitine transporter 2; assay: TP_TRANSPORTER: inhibition of carnitine uptake by Carnitine-related compound-13 at 20uM in Xenopus laevis oocytes; assay type: functional, cell-based, Oocyte; set-up: scale not given: the % may be the effect or the level left; details: probe carnitine, read-out: Activity
[18] = target: Solute carrier family 22 member 16 (Homo sapiens) (UniProt Q86VW1); assay: TP_TRANSPORTER: inhibition of carnitine uptake by Carnitine-related compound-13 at 20uM in Xenopus laevis oocytes; set-up: scale not given: the % may be the effect or the level left; details: Oocyte
[19] = target: Solute carrier family 22 member 16 (Homo sapiens) (UniProt Q86VW1); assay: TP_TRANSPORTER: inhibition of carnitine uptake by Carnitine-related compound-17 at 20uM in Xenopus laevis oocytes; set-up: scale not given: the % may be the effect or the level left; details: Oocyte
[20] = target: T1, Organic cation/carnitine transporter 2; assay: TP_TRANSPORTER: inhibition of carnitine uptake by Carnitine-related compound-14 at 20uM in Xenopus laevis oocytes; assay type: functional, cell-based, Oocyte; set-up: scale not given: the % may be the effect or the level left; details: probe carnitine, read-out: Activity
[21] = target: Solute carrier family 22 member 16 (Homo sapiens) (UniProt Q86VW1); assay: TP_TRANSPORTER: inhibition of carnitine uptake by Carnitine-related compound-12A at 20uM in Xenopus laevis oocytes; set-up: scale not given: the % may be the effect or the level left; details: Oocyte
[22] = target: T1, Organic cation/carnitine transporter 2; assay: TP_TRANSPORTER: inhibition of carnitine transport by Carnitine-related compound-3A at 20uM in Xenopus laevis oocytes; assay type: functional, cell-based, Oocyte; set-up: scale not given: the % may be the effect or the level left; details: probe carnitine, read-out: Activity
[23] = target: Solute carrier family 22 member 16 (Homo sapiens) (UniProt Q86VW1); assay: TP_TRANSPORTER: inhibition of carnitine uptake by Carnitine-related compound-3A at 20uM in Xenopus laevis oocytes; set-up: scale not given: the % may be the effect or the level left; details: Oocyte
[24] = target: T1, Organic cation/carnitine transporter 2; assay: TP_TRANSPORTER: inhibition of carnitine transport by Carnitine-related compound-9A at 20uM in Xenopus laevis oocytes; assay type: functional, cell-based, Oocyte; set-up: scale not given: the % may be the effect or the level left; details: probe carnitine, read-out: Activity
[25] = target: Solute carrier family 22 member 16 (Homo sapiens) (UniProt Q86VW1); assay: TP_TRANSPORTER: inhibition of carnitine uptake by Carnitine-related compound-9A at 20uM in Xenopus laevis oocytes; set-up: scale not given: the % may be the effect or the level left; details: Oocyte
[26] = target: Solute carrier family 22 member 16 (Homo sapiens) (UniProt Q86VW1); assay: TP_TRANSPORTER: inhibition of carnitine uptake by Carnitine-related compound-10A at 20uM in Xenopus laevis oocytes; set-up: scale not given: the % may be the effect or the level left; details: Oocyte
[27] = target: T1, Organic cation/carnitine transporter 2; assay: TP_TRANSPORTER: inhibition of carnitine uptake by Carnitine-related compound-10A at 20uM in Xenopus laevis oocytes; assay type: functional, cell-based, Oocyte; set-up: scale not given: the % may be the effect or the level left; details: probe carnitine, read-out: Activity
[28] = substrate: C[N+](C)(C)CC(O)CC(=O)[O-]; assay: TP_TRANSPORTER: uptake in Xenopus laevis oocytes; assay type: functional, cell-based, Oocyte

CC[N+](CC)(CC)CCCCC(=O)O.[Cl-]
Activity [1]: 20%
Activity [2]: 50%

C[N+](C)(C)CCCCCC(=O)O
Activity [3]: 20%
activity at 20 µM [4]: 35%

CCCCCCCC(=O)OC(CC(=O)O)C[N+](C)(C)C.[Cl-] (stereo not drawn) [Octanoyl-carnitine]
Activity [5]: 70%

CC[N+](CC)(CC)CC(O)CCC(=O)[O-] (stereo not drawn)
Activity [6]: 20%

CC[N+](CCCCC(=O)O)(C(C)C)C(C)C
Activity [7]: 20%
activity at 20 µM [8]: 40%

C[N+](C)(C)C[C@@H](O)CC(=O)[O-] [D-CARNITINE]
Ki [9]: 30 µM

CC(=O)O[C@H](CC(=O)[O-])C[N+](C)(C)C [ACETYLCARNITINE]
activity at 5 µM [10]: 70%

CC[N+](C)(CC)CCCCCC(=O)O
activity at 20 µM [11]: 20%
Activity [12]: 30%

CC[N+](C)(CC)CCCCCCC(=O)O
Activity [13]: 50%

CCC[N+](CCC)(CCC)CCCCC(=O)O
Activity [14]: 70%

C[N+](C)(C)CCCCC(=O)O
activity at 20 µM [15]: 40%
Activity [16]: 20%

C[N+](C)(C)CC(O)CC(=O)[O-] (stereo not drawn) [CARNITINE]
activity at 20 µM [17]: 40%
Activity [18]: 20%

CC[N+](C)(CC)CC(O)CCC(=O)[O-] (stereo not drawn)
Activity [19]: 20%

CC[N+](CC)(CC)CC(O)CC(=O)[O-] (stereo not drawn)
activity at 20 µM [20]: 70%

CC[N+](CC)(CC)CCCCCCC(=O)O
Activity [21]: 50%

CC[N+](C)(CC)CCCCC(=O)O
activity at 20 µM [22]: 20%
Activity [23]: 20%

CC[N+](CC)(CC)CCCCCC(=O)O
activity at 20 µM [24]: 30%
Activity [25]: 20%

C[N+](C)(C)CCCCCCC(=O)O
Activity [26]: 40%
activity at 20 µM [27]: 50%

B1: Solute carrier family 22 member 16 (Homo sapiens) (protein)
chain: MGSRHFEGIYDHVGHFGRFQRVLYFICAFQNISCGIHYLASVFMGVTPHHVCRPPGNVSQVVFHNHSNWSLEDTGALLSSGQKDYVTVQLQNGEIWELSRCSRNKRENTSSLGYEYTGSKKEFPCVDGYIYDQNTWKSTAVTQWNLVCDRKWLAMLIQPLFMFGVLLGSVTFGYFSDRLGRRVVLWATSSSMFLFGIAAAFAVDYYTFMAARFFLAMVASGYLVVGFVYVMEFIGMKSRTWASVHLHSFFAVGTLLVALTGYLVRTWWLYQMILSTVTVPFILCCWVLPETPFWLLSEGRYEEAQKIVDIMAKWNRASSCKLSELLSLDLQGPVSNSPTEVQKHNLSYLFYNWSITKRTLTVWLIWFTGSLGFYSFSLNSVNLGGNEYLNLFLLGVVEIPAYTFVCIAMDKVGRRTVLAYSLFCSALACGVVMVIPQKHYILGVVTAMVGKFAIGAAFGLIYLYTAELYPTIVRSLAVGSGSMVCRLASILAPFSVDLSSIWIFIPQLFVGTMALLSGVLTLKLPETLGKRLATTWEEAAKLESENESKSSKLLLTTNNSGLEKTEAITPRDSGLGE
Km [28]: 20 µM
